Results from US5250540A, “Aminomethyl-substituted 2,3-dihydropyrano[2,3-b]pyridines and their use in medicaments” (Bayer Aktiengesellschaft, priority 1991, dated 1993).
Structures can show the parent of a compound that is named as a salt.

Target: 5-HT1-receptor (5-hydroxytryptamine receptors of subtype 1)
Assay: receptor binding studies using preparations of calf hippocampus membranes, radioligand 3H-serotonin
Conditions: ^3 H-serotonin as radioactively labelled ligand
Description: In Table 1 the high affinity of the compounds according to the invention for 5-hydroxytryptamine receptors of subtype 1 is exemplified. The values given relate to data obtained from receptor binding studies using preparations of calf hippocampus membranes. The radioactively labelled ligand used for this was ^3 H-serotonin.

O=C1c2ccccc2S(=O)(=O)N1CCCCNCC1CCc2cccnc2O1 (stereo not shown) [Example 4, 2-N-(4-Butylsaccharinyl)-aminomethyl-2,3-dihydropyrano2,3-b]pyridine HCl salt]
Ki: 1 nM
